Measurements: ChEMBL document CHEMBL1154945, “Decahydroisoquinoline derivatives as novel non-peptidic, potent and subtype-selective somatostatin sst(3) receptor antagonists” (Bioorg Med Chem Lett, 2010)

Experiments:
[1] = biological target: Somatostatin receptor type 1 (Homo sapiens, UniProt P30872); test: Binding affinity to human SST1 receptor
[2] = biological target: Somatostatin receptor type 3 (Homo sapiens, UniProt P32745); test: Binding affinity to human SST3 receptor
Homo sapiens = species on record: Homo sapiens; test: Selectivity for human SST3 over human SST1

Somatostatin receptor type 3, sequence (P32745 whole entry): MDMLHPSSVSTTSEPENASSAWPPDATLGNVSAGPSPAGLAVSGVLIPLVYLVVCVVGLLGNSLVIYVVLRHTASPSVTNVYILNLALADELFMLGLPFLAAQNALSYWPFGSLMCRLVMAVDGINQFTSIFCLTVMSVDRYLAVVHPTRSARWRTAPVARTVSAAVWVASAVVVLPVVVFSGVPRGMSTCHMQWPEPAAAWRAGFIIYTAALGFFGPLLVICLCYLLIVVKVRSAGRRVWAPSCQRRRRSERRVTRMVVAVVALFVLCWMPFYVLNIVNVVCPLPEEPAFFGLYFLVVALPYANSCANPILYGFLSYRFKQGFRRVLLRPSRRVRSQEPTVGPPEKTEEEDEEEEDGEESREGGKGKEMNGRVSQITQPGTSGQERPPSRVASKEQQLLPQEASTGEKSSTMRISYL
Somatostatin receptor type 1, sequence (P30872 whole entry): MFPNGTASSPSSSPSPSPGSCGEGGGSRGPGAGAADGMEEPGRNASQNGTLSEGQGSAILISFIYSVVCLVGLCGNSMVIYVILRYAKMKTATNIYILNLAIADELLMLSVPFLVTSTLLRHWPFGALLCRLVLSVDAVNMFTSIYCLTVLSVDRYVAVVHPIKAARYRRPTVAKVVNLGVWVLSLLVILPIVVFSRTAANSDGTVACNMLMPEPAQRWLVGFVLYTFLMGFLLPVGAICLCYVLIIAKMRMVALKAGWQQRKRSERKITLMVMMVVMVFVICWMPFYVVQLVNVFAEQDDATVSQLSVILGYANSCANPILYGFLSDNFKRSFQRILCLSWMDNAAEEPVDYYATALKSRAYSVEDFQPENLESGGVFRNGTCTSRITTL

Kd [1] | Kd [2] | Ratio (Homo sapiens) | Structure (SMILES)
0.933 µM | 0.00123 µM | 760 | COC(=O)c1cc(C[C@H](C)CN2C[C@@H]3CCCC[C@@H]3[C@H](C(=O)N3CCN(c4ccc([N+](=O)[O-])cc4)CC3)C2)cc(C(=O)OC)c1
– | 0.741 µM | – | CC(Cc1ccc2c(c1)OCO2)CN1CC2CCCCC2C(C(=O)N2CCN(c3cccc(C(F)(F)F)n3)CC2)C1 (stereo unspecified)
0.00759 µM | 1.05 µM | – | CN(CCC(=O)N1CCN(c2ccc([N+](=O)[O-])cc2)CC1)CCC1c2ccccc2-c2ccccc21
6.17 µM | 1.12 µM | – | CC(Cc1ccc2c(c1)OCO2)CN1C[C@H]2CCCC[C@H]2[C@H](C(=O)N2CCN(c3ccc([N+](=O)[O-])cc3)CC2)C1 (mixture of isomers)
0.537 µM | 0.155 µM | – | CC(Cc1ccc2c(c1)OCO2)CN1C[C@@H](C(=O)N2CCN(c3ccc([N+](=O)[O-])cc3)CC2)C[C@@H]2CCCC[C@H]21 (mixture of isomers)
– | 0.107 µM | – | CC(Cc1ccc2c(c1)OCO2)CN1CC2CCCCC2C(C(=O)N2CCN(c3ccc4nccnc4n3)CC2)C1 (stereo unspecified)
– | 0.331 µM | – | CC(Cc1ccc2c(c1)OCO2)CN1CC2CCCCC2C(C(=O)N2CCN(c3ccccn3)CC2)C1 (stereo unspecified)
– | 0.0794 µM | – | CC(Cc1ccc2c(c1)OCO2)CN1CC2CCCCC2C(C(=O)N2CCN(c3ccc(C#N)cn3)CC2)C1 (stereo unspecified)
0.0776 µM | 0.302 µM | – | O=C(CCN(CCC1c2ccccc2-c2ccccc21)CC1CC1)N1CCN(c2ccc([N+](=O)[O-])cc2)CC1
– | 0.0209 µM | – | CC(Cc1ccc2c(c1)OCO2)CN1CC2CCCCC2C(C(=O)N2CCN(c3ccc(F)c(F)c3)CC2)C1 (stereo unspecified)
– | 1.35 µM | – | CC(Cc1ccc2c(c1)OCO2)CN1CC2CCCCC2C(C(=O)N2CCN(c3cccc4nccnc34)CC2)C1 (stereo unspecified)
1 µM | 0.00288 µM | – | COC(=O)c1cc(CC(C)CN2CC3CCCCC3C(C(=O)N3CCN(c4ccc([N+](=O)[O-])cc4)CC3)C2)cc(C(=O)OC)c1 (racemic)
– | 0.0575 µM | – | CC(Cc1ccc2c(c1)OCO2)CN1CC2CCCCC2C(C(=O)N2CCN(c3ccc(F)cc3)CC2)C1 (stereo unspecified)
– | 1.58 µM | – | CC(Cc1ccc2c(c1)OCO2)CN1CC2CCCCC2C(C(=O)N2CCN(c3cc4nccnc4cn3)CC2)C1 (stereo unspecified)
2.45 µM | 1.23 µM | – | CC(Cc1ccc2c(c1)OCO2)CN1C[C@@H](C(=O)N2CCN(c3ccc([N+](=O)[O-])cc3)CC2)C[C@@H]2CCCC[C@@H]21 (mixture of isomers)
9.12 µM | 0.0347 µM | – | C[C@@H](Cc1ccc2ncnn2c1)CN1C[C@@H]2CCCC[C@@H]2[C@H](C(=O)N2CCN(c3ccc(F)c(F)c3)CC2)C1
– | 0.24 µM | – | CC(Cc1ccc2c(c1)OCO2)CN1CC2CCCCC2C(C(=O)N2CCN(c3ccc4nccn4n3)CC2)C1 (stereo unspecified)
0.912 µM | 0.00851 µM | – | C[C@@H](Cc1ccc2c(c1)OCO2)CN1C[C@@H]2CCCC[C@@H]2[C@H](C(=O)N2CCN(c3ccc(F)c(F)c3)CC2)C1
0.398 µM | 0.00135 µM | – | COC(=O)c1cc(CC(C)CN2C[C@@H]3CCCC[C@@H]3[C@H](C(=O)N3CCN(c4ccc([N+](=O)[O-])cc4)CC3)C2)cc(C(=O)OC)c1 (mixture of isomers)
2.63 µM | 0.0107 µM | – | C[C@@H](Cc1ccc2nccnc2c1)CN1C[C@@H]2CCCC[C@@H]2[C@H](C(=O)N2CCN(c3ccc(F)c(F)c3)CC2)C1
0.49 µM | 0.162 µM | – | CC(Cc1ccc2c(c1)OCO2)CN1C[C@H](C(=O)N2CCN(c3ccc([N+](=O)[O-])cc3)CC2)C[C@@H]2CCCC[C@@H]21 (mixture of isomers)

Kd [1] | Kd [2] | Ratio (Homo sapiens) | Structure (SMILES)
2.34 µM | 0.0141 µM | – | CCOc1ccc(C[C@H](C)CN2C[C@@H]3CCCC[C@@H]3[C@H](C(=O)N3CCN(c4ccc(F)c(F)c4)CC3)C2)cn1
– | 1.26 µM | – | CC(Cc1ccc2c(c1)OCO2)CN1CC2CCCCC2C(C(=O)N2CCN(c3cccc4nccn34)CC2)C1 (stereo unspecified)
0.0398 µM | 0.107 µM | 0.4 | Cc1cn2cc(C[C@H](C)CN3C[C@@H]4CCCC[C@@H]4[C@H](C(=O)N4CCN(c5ccc(F)c(F)c5)CC4)C3)ccc2n1
– | 0.0955 µM | – | CC(Cc1ccc2c(c1)OCO2)CN1CC2CCCCC2C(C(=O)N2CCN(c3ccc4nsnc4n3)CC2)C1 (stereo unspecified)
– | 0.191 µM | – | CC(Cc1ccc2c(c1)OCO2)CN1CC2CCCCC2C(C(=O)N2CCN(c3cccc4nsnc34)CC2)C1 (stereo unspecified)
1.62 µM | 0.011 µM | – | C[C@@H](Cc1ccc2ocnc2c1)CN1C[C@@H]2CCCC[C@@H]2[C@H](C(=O)N2CCN(c3ccc(F)c(F)c3)CC2)C1
– | 0.0912 µM | – | CC(Cc1ccc2c(c1)OCO2)CN1CC2CCCCC2C(C(=O)N2CCN(c3cccc4nonc34)CC2)C1 (stereo unspecified)
– | – | 620 | Cc1nc2ccc(C[C@H](C)CN3C[C@@H]4CCCC[C@@H]4[C@H](C(=O)N4CCN(c5ccc(F)c(F)c5)CC4)C3)cn2n1
2.34 µM | 0.107 µM | – | COC(=O)c1cc(CC(C)CN2C[C@H]3CCCC[C@H]3[C@@H](C(=O)N3CCN(c4ccc([N+](=O)[O-])cc4)CC3)C2)cc(C(=O)OC)c1 (mixture of isomers)
– | 2.69 µM | – | CC(Cc1ccc2c(c1)OCO2)CN1CC2CCCCC2C(C(=O)N2CCN(c3cccc4nncn34)CC2)C1 (stereo unspecified)
0.12 µM | 0.117 µM | – | O=C(C1CCCN(CCC2c3ccccc3-c3ccccc32)C1)N1CCN(c2ccc([N+](=O)[O-])cc2)CC1 (racemic)
0.437 µM | 0.00224 µM | – | COC(=O)c1cc(C[C@@H](C)CN2C[C@@H]3CCCC[C@@H]3[C@H](C(=O)N3CCN(c4ccc([N+](=O)[O-])cc4)CC3)C2)cc(C(=O)OC)c1
– | 0.0912 µM | – | CC(Cc1ccc2c(c1)OCO2)CN1CC2CCCCC2C(C(=O)N2CCN(c3ccc(Cl)cn3)CC2)C1 (stereo unspecified)
1.91 µM | 0.0288 µM | – | CCNc1ccc(C[C@H](C)CN2C[C@@H]3CCCC[C@@H]3[C@H](C(=O)N3CCN(c4ccc(F)c(F)c4)CC3)C2)cn1
– | 2.4 µM | – | CC(Cc1ccc2c(c1)OCO2)CN1CC2CCCCC2C(C(=O)N2CCN(c3cccc(=O)n3C)CC2)C1 (stereo unspecified)
– | 0.0195 µM | – | CC(Cc1ccc2c(c1)OCO2)CN1CC2CCCCC2C(C(=O)N2CCN(c3ccc4nonc4n3)CC2)C1 (stereo unspecified)
– | 0.407 µM | – | CC(Cc1ccc2c(c1)OCO2)CN1CC2CCCCC2C(C(=O)N2CCN(c3cccc(Cl)n3)CC2)C1 (stereo unspecified)
– | 0.02 µM | – | CC(Cc1ccc2c(c1)OCO2)CN1CC2CCCCC2C(C(=O)N2CCN(c3ccc4nonc4c3)CC2)C1 (stereo unspecified)
– | 0.2 µM | – | CC(Cc1ccc2c(c1)OCO2)CN1CC2CCCCC2C(C(=O)N2CCN(c3cccc(F)c3)CC2)C1 (stereo unspecified)
0.912 µM | 0.011 µM | 100 | CC(Cc1ccc2c(c1)OCO2)CN1C[C@H]2CCCC[C@H]2[C@@H](C(=O)N2CCN(c3ccc([N+](=O)[O-])cc3)CC2)C1 (mixture of isomers)
0.102 µM | 0.0851 µM | – | CC(Cc1ccc2c(c1)OCO2)CN1CCCC(C(=O)N2CCN(c3ccc([N+](=O)[O-])cc3)CC2)C1 (racemic)
